Laboratory results published in BindingDB's records for doi:10.1074/jbc.M606873200 (Incyte, 2006).

Molecular target: T1, Tyrosine-protein phosphatase non-receptor type 1 [1-298] (Homo sapiens, UniProt P18031)
T1 construct: 1-298
T1 sequence (P18031 whole entry): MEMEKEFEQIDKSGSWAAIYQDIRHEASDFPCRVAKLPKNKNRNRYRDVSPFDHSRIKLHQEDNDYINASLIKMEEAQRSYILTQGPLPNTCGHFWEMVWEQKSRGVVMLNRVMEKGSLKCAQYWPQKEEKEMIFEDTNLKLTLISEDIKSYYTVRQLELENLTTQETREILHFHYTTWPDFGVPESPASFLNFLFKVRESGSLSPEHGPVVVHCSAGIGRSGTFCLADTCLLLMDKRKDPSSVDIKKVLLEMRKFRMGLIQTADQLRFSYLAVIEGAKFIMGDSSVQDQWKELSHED
Experiment: Phosphatase Inhibition Assay
Conditions: pH 7; 22 °C

| IC50 [µM] | Structure (SMILES) |
| --- | --- |
| 16 | CC(=O)N[C@@H](Cc1ccccc1)C(=O)N[C@@H](Cc1ccc([C@H]2CC(=O)NS2(=O)=O)cc1)C(N)=O [(2S)-N-[(1S)-1-carbamoyl-2-{4-[(5R)-1,1,3-trioxo-1,2-thiazolidin-5-yl]phenyl}ethyl]-2-acetamido-3-phenylpropanamide] |
| 3 | CC(=O)N[C@@H](Cc1ccccc1)C(=O)N[C@@H](Cc1ccc(C2=CC(=O)NS2(=O)=O)cc1)C(N)=O [(2S)-N-[(1S)-1-carbamoyl-2-[4-(1,1,3-trioxo-2,3-dihydro-1,2-thiazol-5-yl)phenyl]ethyl]-2-acetamido-3-phenylpropanamide] |
